Source: ChEMBL document CHEMBL1201862, “PubChem BioAssay data set” (2004)
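Tested at 5 concentrations; 48 h exposure; 96-well plates; endpoints linearly interpolated, else capped at highest concentration. GI50 = concentration required for 50% inhibition of growth.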 The source made the active and inactive calls. Rule as the data show it: active = GI50 up to about 1.1 µM and inactive = higher.

What was measured:
Assay in all cases: NCI-60 cell line screen, 48 h
786-0 = test system: 786-0
A498 = test system: A498
A549 = test system: A549
ACHN = test system: ACHN
BT-549 = test system: BT-549
CAKI-1 = test system: CAKI-1
CCRF-CEM = test system: CCRF-CEM
COLO 205 = test system: COLO 205
DU-145 = test system: DU-145
EKVX = test system: EKVX
HCT-116 = test system: HCT-116
HCT-15 = test system: HCT-15
HL-60 = test system: HL-60
HOP-62 = test system: HOP-62
HOP-92 = test system: HOP-92
HT-29 = test system: HT-29
Hs-578T = test system: Hs-578T
IGROV-1 = test system: IGROV-1
K562 = test system: K562
KM12 = test system: KM12
LOX IMVI = test system: LOX IMVI
M14 = test system: M14
MCF7 = test system: MCF7
MDA-MB-231 = test system: MDA-MB-231
MDA-MB-435 = test system: MDA-MB-435
MDA-N = test system: MDA-N
MOLT-4 = test system: MOLT-4
Malme-3M = test system: Malme-3M
NCI-H226 = test system: NCI-H226
NCI-H23 = test system: NCI-H23
NCI-H460 = test system: NCI-H460
NCI-H522 = test system: NCI-H522
NCI/ADR-RES = test system: NCI/ADR-RES
OVCAR-3 = test system: OVCAR-3
OVCAR-4 = test system: OVCAR-4
OVCAR-5 = test system: OVCAR-5
OVCAR-8 = test system: OVCAR-8
PC-3 = test system: PC-3
RPMI-8226 = test system: RPMI-8226
RXF 393 = test system: RXF 393
SF-268 = test system: SF-268
SF-295 = test system: SF-295
SF-539 = test system: SF-539
SK-MEL-28 = test system: SK-MEL-28
SK-MEL-2 = test system: SK-MEL-2
SK-MEL-5 = test system: SK-MEL-5
SK-OV-3 = test system: SK-OV-3
SN12C = test system: SN12C
SNB-19 = test system: SNB-19
SNB-75 = test system: SNB-75
SR = test system: SR
SW-620 = test system: SW-620
T47D = test system: T47D
TK-10 = test system: TK-10
U-251 = test system: U-251
UACC-257 = test system: UACC-257
UO-31 = test system: UO-31

Oc1ccccc1/C=N/c1ccc(-c2nc3ccccc3[nH]2)cc1
GI50 (786-0): > 100 µM (inactive) | GI50 (A498): > 100 µM (inactive) | GI50 (A549): > 100 µM (inactive) | GI50 (ACHN): > 100 µM (inactive) | GI50 (BT-549): 12.8 µM (inactive) | GI50 (CAKI-1): > 100 µM (inactive) | GI50 (CCRF-CEM): 22.5 µM (inactive) | GI50 (COLO 205): 47.2 µM (inactive) | GI50 (DU-145): 65.8 µM (inactive) | GI50 (EKVX): > 100 µM (inactive) | GI50 (HCT-116): 53.6 µM (inactive) | GI50 (HCT-15): 29.6 µM | GI50 (HL-60): 25.2 µM (inactive) | GI50 (HOP-62): > 100 µM (inactive) | GI50 (HOP-92): 22.9 µM (inactive) | GI50 (HT-29): 81.8 µM (inactive) | GI50 (Hs-578T): > 100 µM (inactive) | GI50 (IGROV-1): 28.4 µM (inactive) | GI50 (K562): 43.2 µM (inactive) | GI50 (KM12): 43.3 µM (inactive) | GI50 (LOX IMVI): > 100 µM (inactive) | GI50 (M14): 63.4 µM (inactive) | GI50 (MCF7): 20.7 µM (inactive) | GI50 (MDA-MB-231): 40.5 µM (inactive) | GI50 (MDA-MB-435): 67.6 µM (inactive) | GI50 (MDA-N): 54.7 µM (inactive) | GI50 (MOLT-4): 21.3 µM (inactive) | GI50 (Malme-3M): 93.3 µM (inactive) | GI50 (NCI-H226): > 100 µM (inactive) | GI50 (NCI-H23): 50.5 µM (inactive) | GI50 (NCI-H460): 54.8 µM (inactive) | GI50 (NCI-H522): 63.5 µM (inactive) | GI50 (NCI/ADR-RES): 4.53 µM (inactive) | GI50 (OVCAR-3): > 100 µM (inactive) | GI50 (OVCAR-4): > 100 µM (inactive) | GI50 (OVCAR-5): > 100 µM (inactive) | GI50 (OVCAR-8): 47.1 µM (inactive) | GI50 (PC-3): 50.5 µM (inactive) | GI50 (RPMI-8226): 26.6 µM (inactive) | GI50 (RXF 393): 29.7 µM (inactive) | GI50 (SF-268): 43 µM (inactive) | GI50 (SF-295): 71 µM (inactive) | GI50 (SF-539): > 100 µM (inactive) | GI50 (SK-MEL-28): > 100 µM (inactive) | GI50 (SK-MEL-2): > 100 µM (inactive) | GI50 (SK-MEL-5): 27.8 µM (inactive) | GI50 (SK-OV-3): > 100 µM (inactive) | GI50 (SN12C): 79.1 µM (inactive) | GI50 (SNB-19): > 100 µM (inactive) | GI50 (SNB-75): 42.1 µM (inactive) | GI50 (SR): 44.7 µM (inactive) | GI50 (SW-620): 90.2 µM (inactive) | GI50 (T47D): 10.4 µM (inactive) | GI50 (TK-10): > 100 µM (inactive) | GI50 (U-251): 49.9 µM (inactive) | GI50 (UACC-257): 47.8 µM (inactive) | GI50 (UO-31): 63.1 µM (inactive)
